# Reference: patent US12516341B2, “Use of flavonoid glycoside substance and glycosyltransferase gene for regulating resistance of plants to weeds” (ZHONGKENONGFU(BEIJING) BIOTECHNOLOGY CO., LTD, priority 2020, dated 2026)
# Key:
# lettuce = experiment: External application of compound to lettuce seeds on agar, root length; format: in vivo; conditions: external application concentration 500 mg/L in 0.8% agar; 28° C. in the dark for 3 days; compared with control
# Protocol: (§1) The reasons for choosing lettuce and barnyardgrass in the external application experiment were: lettuce was a common indicator crop reported in the literature for external application of allelopathic experiments, while barnyardgrass was the main weed in paddy fields.
# (§2) (1) The compound of tricin-5-O-glucopyranoside was dried to a powder with a centrifugal concentrator and weighed, and an appropriate amount of sterile water was added to give a final concentration of 10 mg/mL.
# (§3) (2) 500 mL of 0.8% agar was prepared and sterilized in an autoclave.
# (§4) (3) The sterilized agar was placed in an ultra-clean bench and cooled to room temperature (note: the medium was not allowed to solidify), and then 4.75 mL of medium was accurately pipetted into a sterilized 10 mL centrifuge tube. 250 μL of the 10 mg/mL compound solution was added to give a final compound concentration of 500 mg/L. The medium containing the compound was quickly poured into a 10 cm×10 cm square dish, and the square dish was shaken quickly to make the medium evenly spread in the square dish. A medium in which 250 μL of sterile water was added to 4.75 mL of the medium was used as a control.
# (§5) (4) Barnyardgrass and lettuce seeds were washed several times with distilled water, respectively, and then dried on sterile filter paper. […]
# (§6) (7) Phenotypic statistics: the root length of each treated material was counted after 3 days. […]
# barnyardgrass = experiment: External application of compound to barnyardgrass seeds on agar, root length; format: in vivo; conditions: external application concentration 500 mg/L in 0.8% agar; 28° C. in the dark for 3 days; compared with control
# Protocol: as §1, §2, §3, §4, §5, §6
# [1] = tested on: Os07g0503900 recombinant protein; experiment: In vitro enzyme activity of Os07g0503900 (glycosylation of tricin with UDPG, UPLC-MS detection); format: biochemical, rice; conditions: glycosyl donor UDPG; 30° C. for 1 h; pH 7.0; product tricin-5-O-glucopyranoside
# Protocol: (1) The enzymatic reaction system was: Tris-HCl (pH 7.0, 50 mM, containing 10 mM DTT) 38 μL, 10 mM glycosyl acceptor (the glycosyl acceptor of Os07g0503900 was tricin) 1 μL, 100 mM glycosyl donor (UDPG) 1 μL, and 10 μL of the Os07g0503900 recombinant protein obtained in step 2 (Os07g0503900 protein concentration was 3.77 μg/μL). The reaction was carried out in a water bath at 30° C. for 1 h, and then quenched with an equal volume of methanol. A sample of the protein obtained from the E. coli transformed into the pMAL-c2X empty vector according to the above-mentioned step 2 was added as a control.
# (2) Enzyme activity product detection: The sample in (1) was centrifuged at 4° C., 12,000 rpm for 10 min, and 30 μL was taken for detection by UPLC-MS (Agilent 1290UPLC-6540Q-TOF). Mobile phase A phase: 0.1% formic acid aqueous solution, % represented volume percentage; B phase: acetonitrile. Elution gradient: 0-2 min: 5% B-10% B, 2-12 min: 10% B-25% B, 12-18 min: 25% B-70% B, 18-23 min: 70% B-90% B, 23-25 min: 90% B-100% B, 25-30 min: 100% B, post-run for 5 min, % all represented volume percentage. The flow rate was 0.3 mL/min, the column temperature: 40° C., and the injection volume: 5 μL. Electrospray ionization (ESI) was used for detection in positive ion mode. The carrier gas was high-purity nitrogen at a pressure of 40 psi and a temperature of 325° C.
smiles,measurement,setting,value
COc1cc(-c2cc(=O)c3c(O)cc(O)cc3o2)cc(OC)c1O [tricin],inhibitory effect on the growth of lettuce (root length),lettuce,not obvious
same,inhibitory effect on the growth of barnyardgrass (root length),barnyardgrass,not obvious
same,glycosylation of tricin by Os07g0503900 in vitro (new chromatographic peak vs empty vector control),[1],Os07g0503900 can catalyze the glycosylation of tricin in vitro
COc1cc(-c2cc(=O)c3c(O[C@@H]4O[C@H](CO)[C@@H](O)[C@H](O)[C@H]4O)cc(O)cc3o2)cc(OC)c1O [tricin-5-O-glucopyranoside],inhibitory effect on the growth of lettuce (root length),lettuce,very significant ability to inhibit the growth
same,inhibitory effect on the growth of barnyardgrass (root length),barnyardgrass,very significant ability to inhibit the growth
